Test results from ChEMBL document CHEMBL5465560, “Selectivity Literature for EUbOPEN Chemogenomic Library” (2024).

Columns and labels:
[1] = molecular target: Cyclin-dependent kinase 11B (Homo sapiens) (UniProt P21127); test: Selectivity interaction (KinomeScan (DiscoverX)) EUB0001049a CDK11B; details: at 1 µM
[2] = molecular target: Ribosomal protein S6 kinase alpha-5 (Homo sapiens) (UniProt O75582); test: Selectivity interaction (KinomeScan (DiscoverX)) EUB0000666a RPS6KA5; details: at 10 µM
[3] = molecular target: Vascular endothelial growth factor receptor 1 (Homo sapiens) (UniProt P17948); test: Selectivity interaction (KinomeScan (DiscoverX)) EUB0000229b FLT1; details: at 10 µM
[4] = molecular target: Mitogen-activated protein kinase kinase kinase 14 (Homo sapiens) (UniProt Q99558); test: Selectivity interaction (KinomeScan (DiscoverX)) EUB0000229b MAP3K14; details: at 10 µM
[5] = molecular target: Mitogen-activated protein kinase kinase kinase 1 (Homo sapiens, UniProt Q13233); test: Selectivity interaction (KinomeScan (DiscoverX)) EUB0001079a MAP3K1; details: at 1 µM
[6] = molecular target: Tyrosine-protein kinase Fyn (Homo sapiens) (UniProt P06241); test: Selectivity interaction (Kinase panel (KiNativ target engagement assay in Jurkat cells)) EUB0001635a FYN; type: cell-based; details: Selectivity number of off-targets 0.0, Selectivity number of targets 233.0, Source Knowledge https://www.sciencedirect.com/science/article/pii/S2451945619300674?via%3Dihub, at 1 µM
[7] = molecular target: RAC-alpha serine/threonine-protein kinase (Homo sapiens, UniProt P31749); test: Selectivity interaction (Kinase panel (33PanQinase(R) Activity Assay)) EUB0000877a AKT1
[8] = molecular target: Tyrosine-protein kinase ABL1 (Homo sapiens, UniProt P00519); test: Selectivity interaction (Kinase panel (33PanQinase(R) Activity Assay)) EUB0000877a ABL1
[9] = molecular target: Dual specificity mitogen-activated protein kinase kinase 1 (Homo sapiens, UniProt Q02750); test: Selectivity interaction (ActivX KiNativ screen (kinase selectivity in THP-1 cell lysates)) EUB0000639a MAP2K1; type: subcellular; details: lysate, at 0.04 µM
[10] = molecular target: T1, Dual specificity mitogen-activated protein kinase kinase 3 (Homo sapiens) (UniProt P46734); test: Selectivity interaction (KinomeScan (DiscoverX)) EUB0000092b MAP2K3; details: at 10 µM
T1 sequence (whole entry): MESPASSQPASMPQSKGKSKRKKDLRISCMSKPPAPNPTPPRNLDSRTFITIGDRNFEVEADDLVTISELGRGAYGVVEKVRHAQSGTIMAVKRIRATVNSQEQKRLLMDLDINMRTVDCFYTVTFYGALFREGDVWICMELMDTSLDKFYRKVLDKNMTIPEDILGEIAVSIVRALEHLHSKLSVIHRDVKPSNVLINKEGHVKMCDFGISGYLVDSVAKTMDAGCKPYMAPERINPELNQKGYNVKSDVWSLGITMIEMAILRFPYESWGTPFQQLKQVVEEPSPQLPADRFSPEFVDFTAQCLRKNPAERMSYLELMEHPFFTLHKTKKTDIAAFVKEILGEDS

[11] = test system: Tyrosine-protein kinase ABL1 (Homo sapiens), P00519 [H396P]; test: Selectivity interaction (KinomeScan (DiscoverX)) EUB0000045b ABL1; details: at 10 µM
[12] = molecular target: Angiopoietin-1 receptor (Homo sapiens) (UniProt Q02763); test: Selectivity interaction (KinomeScan (DiscoverX)) EUB0000618a TEK; details: at 10 µM
[13] = molecular target: Casein kinase II subunit alpha' (Homo sapiens) (UniProt P19784); details: at 10 µM
[14] = molecular target: T2, Inhibitor of nuclear factor kappa-B kinase subunit alpha (Homo sapiens) (UniProt O15111); details: at 1 µM
T2 sequence (whole entry): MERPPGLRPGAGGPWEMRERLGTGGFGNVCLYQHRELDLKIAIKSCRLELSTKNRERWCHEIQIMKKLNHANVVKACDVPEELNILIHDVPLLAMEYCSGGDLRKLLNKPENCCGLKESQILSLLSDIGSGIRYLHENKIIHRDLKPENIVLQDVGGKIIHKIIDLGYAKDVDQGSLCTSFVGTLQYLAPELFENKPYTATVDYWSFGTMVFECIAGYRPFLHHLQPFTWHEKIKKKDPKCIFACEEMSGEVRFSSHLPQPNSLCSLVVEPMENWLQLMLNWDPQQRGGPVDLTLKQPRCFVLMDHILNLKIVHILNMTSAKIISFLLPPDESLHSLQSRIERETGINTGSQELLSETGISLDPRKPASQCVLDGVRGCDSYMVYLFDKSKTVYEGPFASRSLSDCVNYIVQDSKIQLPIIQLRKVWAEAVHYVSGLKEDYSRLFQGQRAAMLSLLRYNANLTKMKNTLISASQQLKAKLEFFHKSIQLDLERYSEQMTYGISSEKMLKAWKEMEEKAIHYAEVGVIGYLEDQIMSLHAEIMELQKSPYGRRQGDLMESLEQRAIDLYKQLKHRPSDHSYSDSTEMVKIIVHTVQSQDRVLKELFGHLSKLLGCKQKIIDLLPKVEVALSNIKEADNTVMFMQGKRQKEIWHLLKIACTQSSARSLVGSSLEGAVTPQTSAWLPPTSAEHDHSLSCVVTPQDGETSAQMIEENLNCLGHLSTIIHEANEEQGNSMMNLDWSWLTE

[15] = molecular target: STE20/SPS1-related proline-alanine-rich protein kinase (Homo sapiens) (UniProt Q9UEW8); test: Selectivity interaction (KinomeScan (DiscoverX)) EUB0000655a STK39; details: at 10 µM
[16] = molecular target: Activin receptor type-2A (Homo sapiens) (UniProt P27037); test: Selectivity interaction (LanthaScreen Eu Kinase Binding Assay) EUB0001632a ACVR2A; details: at 10 µM
[17] = molecular target: MAP kinase-activated protein kinase 3 (Homo sapiens) (UniProt Q16644); test: Selectivity interaction (ProQinase) EUB0000171b MAPKAPK3
Chain of MAP kinase-activated protein kinase 3 (Homo sapiens) (Q16644 whole entry, looked up): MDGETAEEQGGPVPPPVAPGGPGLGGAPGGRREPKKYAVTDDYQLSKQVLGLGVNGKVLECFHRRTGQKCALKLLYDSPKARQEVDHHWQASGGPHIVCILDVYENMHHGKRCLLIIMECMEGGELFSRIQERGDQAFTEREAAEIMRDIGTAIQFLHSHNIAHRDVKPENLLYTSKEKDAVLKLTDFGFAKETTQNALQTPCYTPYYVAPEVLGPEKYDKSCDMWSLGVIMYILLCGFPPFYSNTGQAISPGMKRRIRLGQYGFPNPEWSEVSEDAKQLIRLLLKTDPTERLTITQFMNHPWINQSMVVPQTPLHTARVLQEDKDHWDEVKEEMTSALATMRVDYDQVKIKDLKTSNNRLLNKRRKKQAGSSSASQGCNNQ

Chain of RAC-alpha serine/threonine-protein kinase (P31749 whole entry): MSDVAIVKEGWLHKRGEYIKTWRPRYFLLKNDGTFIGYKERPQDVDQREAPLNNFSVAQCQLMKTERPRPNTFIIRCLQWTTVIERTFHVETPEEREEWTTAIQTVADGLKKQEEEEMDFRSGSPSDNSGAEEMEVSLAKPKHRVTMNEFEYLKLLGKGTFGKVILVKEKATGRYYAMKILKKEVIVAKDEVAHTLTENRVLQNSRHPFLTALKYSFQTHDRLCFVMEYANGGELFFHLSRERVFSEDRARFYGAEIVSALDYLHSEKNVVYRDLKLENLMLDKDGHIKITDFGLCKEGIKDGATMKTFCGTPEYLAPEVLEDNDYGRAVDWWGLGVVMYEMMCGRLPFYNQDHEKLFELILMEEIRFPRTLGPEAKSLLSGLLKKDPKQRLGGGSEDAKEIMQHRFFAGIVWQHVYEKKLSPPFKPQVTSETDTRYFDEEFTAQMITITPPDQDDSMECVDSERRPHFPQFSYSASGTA
Chain of Casein kinase II subunit alpha' (Homo sapiens) (P19784 whole entry, looked up): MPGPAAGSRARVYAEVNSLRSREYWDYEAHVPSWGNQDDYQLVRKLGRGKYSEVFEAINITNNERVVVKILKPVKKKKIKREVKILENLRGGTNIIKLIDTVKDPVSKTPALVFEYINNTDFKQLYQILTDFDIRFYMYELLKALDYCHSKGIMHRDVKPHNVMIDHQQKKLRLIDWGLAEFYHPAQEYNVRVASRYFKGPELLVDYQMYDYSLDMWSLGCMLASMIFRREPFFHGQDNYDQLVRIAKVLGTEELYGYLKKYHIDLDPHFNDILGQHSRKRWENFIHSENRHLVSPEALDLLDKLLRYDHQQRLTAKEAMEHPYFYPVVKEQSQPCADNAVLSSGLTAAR
Chain of Mitogen-activated protein kinase kinase kinase 14 (Homo sapiens) (Q99558 whole entry, looked up): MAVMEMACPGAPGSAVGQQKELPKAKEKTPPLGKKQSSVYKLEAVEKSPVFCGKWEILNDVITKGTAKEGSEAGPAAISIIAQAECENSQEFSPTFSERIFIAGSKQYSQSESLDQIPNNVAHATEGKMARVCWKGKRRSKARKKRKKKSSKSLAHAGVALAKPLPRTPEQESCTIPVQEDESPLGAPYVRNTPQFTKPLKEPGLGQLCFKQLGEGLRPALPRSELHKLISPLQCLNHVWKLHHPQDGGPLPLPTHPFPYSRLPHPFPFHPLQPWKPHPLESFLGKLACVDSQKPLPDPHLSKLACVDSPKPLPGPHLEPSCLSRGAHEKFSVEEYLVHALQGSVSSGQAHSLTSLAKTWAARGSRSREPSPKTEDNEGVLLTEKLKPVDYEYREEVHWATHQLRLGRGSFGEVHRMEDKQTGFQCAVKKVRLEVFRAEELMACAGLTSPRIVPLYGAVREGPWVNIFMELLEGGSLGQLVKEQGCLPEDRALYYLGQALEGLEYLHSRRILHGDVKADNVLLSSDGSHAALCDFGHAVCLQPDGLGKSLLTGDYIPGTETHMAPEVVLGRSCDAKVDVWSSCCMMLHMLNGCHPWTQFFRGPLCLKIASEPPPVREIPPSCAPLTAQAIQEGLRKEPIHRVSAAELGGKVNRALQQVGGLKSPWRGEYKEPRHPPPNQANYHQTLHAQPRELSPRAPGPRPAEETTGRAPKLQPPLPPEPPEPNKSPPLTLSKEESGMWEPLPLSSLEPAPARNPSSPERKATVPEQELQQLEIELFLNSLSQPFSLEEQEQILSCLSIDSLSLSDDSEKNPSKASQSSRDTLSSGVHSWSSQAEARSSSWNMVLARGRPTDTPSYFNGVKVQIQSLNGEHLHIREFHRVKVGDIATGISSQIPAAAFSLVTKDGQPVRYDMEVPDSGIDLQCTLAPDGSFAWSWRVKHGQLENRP
Chain of Angiopoietin-1 receptor (Homo sapiens) (Q02763 whole entry): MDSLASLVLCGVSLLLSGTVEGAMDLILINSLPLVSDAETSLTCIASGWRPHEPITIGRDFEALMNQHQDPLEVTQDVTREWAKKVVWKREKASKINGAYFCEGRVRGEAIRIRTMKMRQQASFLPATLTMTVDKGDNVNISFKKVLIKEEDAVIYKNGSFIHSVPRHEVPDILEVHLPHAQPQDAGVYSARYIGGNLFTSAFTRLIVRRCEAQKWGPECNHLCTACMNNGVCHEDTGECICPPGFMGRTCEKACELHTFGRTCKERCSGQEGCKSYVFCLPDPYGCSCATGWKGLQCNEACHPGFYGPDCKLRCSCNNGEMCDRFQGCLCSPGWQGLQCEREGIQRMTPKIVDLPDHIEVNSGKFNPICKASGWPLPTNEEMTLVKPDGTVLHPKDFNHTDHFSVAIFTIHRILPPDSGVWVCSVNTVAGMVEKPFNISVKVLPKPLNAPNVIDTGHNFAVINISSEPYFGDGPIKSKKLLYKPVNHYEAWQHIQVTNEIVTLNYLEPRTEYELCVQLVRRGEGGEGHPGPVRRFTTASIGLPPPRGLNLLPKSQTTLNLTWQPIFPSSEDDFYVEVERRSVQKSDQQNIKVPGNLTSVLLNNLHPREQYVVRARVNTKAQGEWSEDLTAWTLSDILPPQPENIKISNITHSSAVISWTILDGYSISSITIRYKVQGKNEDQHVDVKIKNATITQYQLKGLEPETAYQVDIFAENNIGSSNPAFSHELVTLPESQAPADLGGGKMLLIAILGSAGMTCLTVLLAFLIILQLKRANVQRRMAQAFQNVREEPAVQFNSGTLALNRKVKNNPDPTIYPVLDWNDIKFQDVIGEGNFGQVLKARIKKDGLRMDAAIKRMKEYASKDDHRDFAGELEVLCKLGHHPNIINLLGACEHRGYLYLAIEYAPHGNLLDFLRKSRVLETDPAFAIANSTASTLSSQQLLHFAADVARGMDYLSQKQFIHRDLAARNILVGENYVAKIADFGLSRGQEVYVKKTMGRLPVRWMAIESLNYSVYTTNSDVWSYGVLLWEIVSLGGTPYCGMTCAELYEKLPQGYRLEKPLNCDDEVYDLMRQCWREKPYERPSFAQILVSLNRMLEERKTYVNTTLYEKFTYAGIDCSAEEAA
Chain of Activin receptor type-2A (Homo sapiens) (P27037 whole entry): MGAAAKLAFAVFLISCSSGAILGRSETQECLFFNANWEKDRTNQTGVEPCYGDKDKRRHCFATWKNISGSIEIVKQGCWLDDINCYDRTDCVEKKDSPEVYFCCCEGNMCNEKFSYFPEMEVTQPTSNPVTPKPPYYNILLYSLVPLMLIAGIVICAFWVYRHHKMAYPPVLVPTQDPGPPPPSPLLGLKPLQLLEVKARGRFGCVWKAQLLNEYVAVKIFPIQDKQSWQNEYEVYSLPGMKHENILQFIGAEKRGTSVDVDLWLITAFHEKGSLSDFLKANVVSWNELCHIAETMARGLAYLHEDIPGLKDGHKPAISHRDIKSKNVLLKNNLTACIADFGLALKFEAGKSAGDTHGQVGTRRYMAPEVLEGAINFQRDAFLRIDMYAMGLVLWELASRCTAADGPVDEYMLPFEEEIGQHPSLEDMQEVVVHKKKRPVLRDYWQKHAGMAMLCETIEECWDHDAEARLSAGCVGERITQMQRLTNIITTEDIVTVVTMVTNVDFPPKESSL
Chain of Ribosomal protein S6 kinase alpha-5 (Homo sapiens) (O75582 whole entry, looked up): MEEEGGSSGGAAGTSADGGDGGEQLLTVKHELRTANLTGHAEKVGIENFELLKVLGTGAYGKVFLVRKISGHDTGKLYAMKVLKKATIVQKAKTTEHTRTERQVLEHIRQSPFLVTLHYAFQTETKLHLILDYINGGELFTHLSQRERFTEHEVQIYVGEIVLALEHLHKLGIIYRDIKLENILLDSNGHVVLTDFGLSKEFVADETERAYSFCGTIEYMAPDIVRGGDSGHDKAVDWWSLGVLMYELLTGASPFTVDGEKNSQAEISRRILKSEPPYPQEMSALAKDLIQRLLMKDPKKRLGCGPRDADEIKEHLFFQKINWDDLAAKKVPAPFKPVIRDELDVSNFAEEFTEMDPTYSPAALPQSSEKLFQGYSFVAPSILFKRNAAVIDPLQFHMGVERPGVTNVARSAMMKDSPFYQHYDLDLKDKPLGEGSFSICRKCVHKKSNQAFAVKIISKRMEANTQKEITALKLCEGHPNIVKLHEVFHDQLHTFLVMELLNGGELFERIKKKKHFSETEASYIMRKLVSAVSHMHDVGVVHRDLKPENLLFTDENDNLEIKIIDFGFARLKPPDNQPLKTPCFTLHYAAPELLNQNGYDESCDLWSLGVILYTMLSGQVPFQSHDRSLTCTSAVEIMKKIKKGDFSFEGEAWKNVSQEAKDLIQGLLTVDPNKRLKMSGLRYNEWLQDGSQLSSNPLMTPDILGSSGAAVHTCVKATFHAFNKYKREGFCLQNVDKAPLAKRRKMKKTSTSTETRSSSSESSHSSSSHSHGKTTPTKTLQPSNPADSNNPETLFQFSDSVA
Chain of Dual specificity mitogen-activated protein kinase kinase 1 (Q02750 whole entry): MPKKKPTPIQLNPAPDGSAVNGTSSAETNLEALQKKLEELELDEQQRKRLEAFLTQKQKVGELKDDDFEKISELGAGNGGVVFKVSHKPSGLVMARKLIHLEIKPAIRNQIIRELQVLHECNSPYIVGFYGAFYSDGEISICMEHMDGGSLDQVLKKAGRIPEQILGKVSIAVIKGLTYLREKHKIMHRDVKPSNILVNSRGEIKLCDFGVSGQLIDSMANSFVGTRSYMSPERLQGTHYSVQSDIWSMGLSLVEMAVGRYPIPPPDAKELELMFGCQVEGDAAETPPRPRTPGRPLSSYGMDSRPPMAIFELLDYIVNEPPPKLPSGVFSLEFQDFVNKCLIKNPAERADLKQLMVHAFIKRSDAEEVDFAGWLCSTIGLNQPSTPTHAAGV

Work on `COc1cc(Nc2nc(C)cc(-c3cnn4nc(OC)ccc34)n2)cc(C(F)(F)F)c1` yielded a % of control [1] of 100%.
`O=C(NOC[C@H](O)CO)c1ccc(F)c(F)c1Nc1ccc(I)cc1F` showed a % of control [2] of 87%.
Compound `COc1cc(N(C)c2ccnc3ccc(C(F)(F)F)cc23)cc(OC)c1OC` has a % binding [3] of 100% and a % binding [4] of 100%.
In the case of `Nc1cnc(N2CCc3cc(S(=O)(=O)Nc4c(F)cc(Cl)cc4F)cc(N4CCCC4=O)c32)nc1` [TP-020n], the % of control [5] is reported as 100%.
`C=CC(=O)Nc1ccc(C(=O)Nc2[nH]nc3c2CN(C(=O)N[C@H](CN(C)C)c2ccccc2)C3(C)C)cc1` showed a % of engagement [6] of 6.2%.
For `CCC(=O)N1CC[C@H](Nc2ncnc3c2CN(c2cnc(OC)c(C(F)(F)F)c2)CC3)C1` [LENIOLISIB], the IC50 [7] was greater than 10 µM and the IC50 [8] was greater than 10 µM.
`CC[C@@H]1[C@H](F)C(=O)N[C@@H]1COc1nccc2cc(C(N)=O)c(OC)cc12` [ZIMLOVISERTIB] gave a % of inhibition [9] of 5.6%.
With `CCC(=O)N1CCN(c2ccc(-n3c(=O)ccc4cnc5ccc(-c6cnc7ccccc7c6)cc5c43)cc2C(F)(F)F)CC1` the % of control [10] was 80%.
Work on `C=CC(=O)Nc1cc(-n2c(=O)ccc3cnc4ccc(-c5ccc(NS(C)(=O)=O)cc5)cc4c32)ccc1C` yielded a % of control [11] of 44%.
In the case of `O[C@H]1CC[C@H](Nc2ncc3nc(Nc4c(F)cc(F)cc4F)n([C@H]4CCOC4)c3n2)CC1`, the % of control [12] is reported as 100%.
In the case of `Cc1cc([C@@H](C)Nc2ccccc2C(=O)O)c2nc(N3CCOCC3)cc(=O)n2c1` [AZD-6482], the % of control [13] is reported as 100%.
In the case of `Cc1ccc(-c2ccc3c(ccc4sc5c(c43)NC[C@@H](C)NC5=O)n2)cn1`, the % of inhibition [14] is reported as -5%.
In the case of `CN(C)CCOc1ccc(-c2nc(-c3ccncc3)c(-c3ccc4c(c3)CC/C4=N\O)[nH]2)cc1`, the % of control [15] is reported as 100%.
`Cn1cc(-n2cnc3c(NCc4nc5cc(Cl)c(Cl)cc5[nH]4)nc(N4CCOCC4)nc32)cn1` gave a % of inhibition [16] of -39.5%.
With `C=CC(=O)Nc1cccc(C(=O)Nc2ccc(Nc3cc(-c4[nH]c(SC)nc4C)ccn3)cc2)c1` the % of control ([17]; at 1 µM) was 100% and the % of control ([17]; at 5 µM) was 65%.
